Results: patent US20150352108A1, “AMINO-PYRIMIDINE COMPOUNDS AS INHIBITORS OF TBK1 AND/OR IKK EPSILON” (Alzheimer's Institute of America, priority 2009, published 2015)

biological target: T1, IKKε (Homo sapiens, UniProt Q14164); assay: In-vitro IKKε kinase assay ([γ33]ATP filter-plate); assay type: biochemical; details: text bins; read-out: IC50 for inhibition of the kinase activity of IKKε
T1 construct: His-tag; made in house; host or cells: Sf9 insect cells
T1 sequence (Q14164 1-716): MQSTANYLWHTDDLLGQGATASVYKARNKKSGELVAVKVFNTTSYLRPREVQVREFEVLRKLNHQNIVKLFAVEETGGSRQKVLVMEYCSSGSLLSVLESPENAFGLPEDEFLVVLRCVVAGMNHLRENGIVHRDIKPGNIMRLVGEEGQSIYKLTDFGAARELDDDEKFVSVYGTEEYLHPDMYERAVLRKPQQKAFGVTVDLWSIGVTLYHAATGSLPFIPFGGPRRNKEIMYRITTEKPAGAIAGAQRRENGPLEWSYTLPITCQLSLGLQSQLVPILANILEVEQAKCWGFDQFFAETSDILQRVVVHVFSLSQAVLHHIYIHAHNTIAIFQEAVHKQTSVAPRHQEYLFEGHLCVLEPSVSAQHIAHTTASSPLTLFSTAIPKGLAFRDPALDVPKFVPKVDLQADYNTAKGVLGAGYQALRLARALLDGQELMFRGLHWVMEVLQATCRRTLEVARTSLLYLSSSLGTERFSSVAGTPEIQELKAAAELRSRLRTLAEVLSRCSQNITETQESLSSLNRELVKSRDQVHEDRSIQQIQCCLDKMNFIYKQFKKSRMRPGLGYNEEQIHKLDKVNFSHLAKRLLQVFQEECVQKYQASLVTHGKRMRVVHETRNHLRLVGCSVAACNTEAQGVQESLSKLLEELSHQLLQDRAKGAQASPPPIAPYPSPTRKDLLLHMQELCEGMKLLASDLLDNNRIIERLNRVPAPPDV
Method in brief: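 Phosphorylation of casein or myelin basic protein was counted by P-81 filter capture after 30-45 min reactions stopped with phosphoric acid, with counts normalized to DMSO after background subtraction. ATP was twice Km: 60 μM for TBK1 and 32 μM for IKKε, plus [γ33]ATP. Sf9-expressed His-tag enzymes were used at normal/sensitized levels of 0.1/0.02 μg/ml (TBK1) and 0.1/0.015 μg/ml (IKKε).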

Row | IC50 | SMILES
1 | < 5 nM | N#Cc1cc(-c2ccnc(Nc3cccc(NC(=O)NCCO)c3)n2)ccc1OC1CCOCC1 [compound 622, 1-[3-({4-[3-Cyano-4-(tetrahydro-2H-pyran-4-yloxy)phenyl]pyrimidin-2-yl}amino)phenyl]-3-(2-hydroxyethyl)urea]
2 | 5 to 50 nM | N#Cc1cc(-c2ccnc(Nc3ccc(N4CCOCC4)cc3)n2)ccc1O[C@H]1CCN(C(=O)CO)C1 [compound 623, 2-{[(3S)-1-(Hydroxyacetyl)pyrrolidin-3-yl]oxy}-5-(2-{[4-(morpholin-4-yl)phenyl]amino}pyrimidin-4-yl)benzonitrile]
3 | < 5 nM | CC(=O)NS(=O)(=O)c1ccc(Nc2nccc(-c3ccc(OC4CCOCC4)c(C#N)c3)n2)cc1 [compound 630]
4 | < 5 nM | Cc1ccnc(NS(=O)(=O)c2ccc(Nc3nccc(-c4ccc(OC5CCOCC5)c(C#N)c4)n3)cc2)n1 [compound 635, 4-({4-[3-Cyano-4-(tetrahydro-2H-pyran-4-yloxy)phenyl]pyrimidin-2-yl}amino)-N-(4-methylpyrimidin-2-yl)benzene-sulfonamide]
5 | < 5 nM | N#Cc1cc(-c2ccnc(Nc3ccc(CN4CCN(CCO)CC4)cc3)n2)ccc1O[C@@H]1CCN(C(=O)CO)C1 [compound 636, 2-{[(3R)-1-(Hydroxyacetyl)pyrrolidin-3-yl]oxy}-5-{2-[(4-{[4-(2-hydroxyethyl)piperazin-1-yl]methyl}phenyl)amino]pyrimidin-4-yl}benzonitrile]
6 | < 5 nM | COC1CN(c2cccc(Nc3nccc(-c4ccc(O[C@@H]5CCN(C(=O)CO)C5)c(C#N)c4)n3)c2)C1 [compound 639]
7 | 5 to 50 nM | N#Cc1cc(-c2ccnc(Nc3cccc(F)c3)n2)ccc1O[C@@H]1CCN(C(=O)CO)C1 [compound 641, 5-{2-[(3-Fluorophenyl)amino]pyrimidin-4-yl}-2-{[(3R)-1-(hydroxyacetyl)pyrrolidin-3-yl]oxy}benzonitrile]
8 | < 5 nM | CC(C)(O)CNC(=O)Nc1cccc(Nc2nccc(-c3ccc(OC4CCOCC4)c(C#N)c3)n2)c1 [compound 649, 1-[3-({4-[3-Cyano-4-(tetrahydro-2H-pyran-4-yloxy)phenyl]pyrimidin-2-yl}amino)phenyl]-3-(2-hydroxy-2-methylpropyl)urea]
